The text below walks through data of US9988430B2, “Stable GLP-1 based GLP-1/glucagon receptor co-agonists” (Novo Nordisk A/S, priority 2014, dated 2018).

Broadly, the EC50 is the midpoint of the concentration-response curve.

*1 amine or outer side, *2 acyl side, *3 side chain or, on linkers, in order; H or OH if unused. Where a SMILES comes first, the peptide text is derived from it. Bridges are numbered along the chain shown (N, C = ends). Roman numbers before positions name the chains, in order. [ ]: non-standard residue; d: D form. The star is where a group is joined. C18 diacid = O=C(O)CCCCCCCCCCCCCCCCC(=O)*; γGlu = O=C(O)[C@H](CCC(=O)[*:2])N[*:1]; Desaminohistidyl = O=C(CCc1c[nH]cn1)*; Aib = CC(C)(N)C(=O)O

This assay has as its target T1, human glucagon receptor (Homo sapiens, UniProt P47871).
T1 construct: expressed in transfected cells; host or cells: membranes of BHK cells, clone BHK hGCGR A3*25
Nature of the assay: Assay (I)(b): glucagon receptor potency, CRE luciferase reporter gene assay in BHK cells. Particulars: BHK cells expressing human glucagon receptor, read-out: EC50 GlucagonR. The class given is cell-based. On the procedure: Assay (I): GLP-1 and Glucagon Receptor Potency The purpose of this example was to test the activity or potency, of the GLP-1 derivatives of the invention, in vitro. The in vitro potency is the measure of human GLP-1 receptor (GLP-1R) or glucagon receptor (glucagonR) activation, respectively, in a whole cell assay. In vitro potency was determined by measuring the cellular response of human GLP-1 or glucagon receptor activation, respectively, in a reporter gene assay. The assay was performed in a BHK cell line that stably expresses either the human GLP-1 receptor or the human glucagon receptor and comprises the DNA for the cAMP response element (CRE) coupled to a promoter and the gene for firefly luciferase (CRE luciferase). […] When assay incubation was completed, the luciferase substrate (luciferin) was added and the enzyme converted luciferin to oxyluciferin and produces bioluminescence. The luminescence was measured as the readout for the assay. […] The cells were counted and adjusted to 5×10EE3 cells/50 μl (1×10EE5 cells/ml) in Assay Medium. […] Each assay plate was read in a Perkin Elmer TopCount NXT instrument. […] EC50 values were calculated by the software and reported in pM.
Background: Reporter assays use an easily measured gene product as a stand-in for the process of interest.

T1 sequence (P47871 26-477): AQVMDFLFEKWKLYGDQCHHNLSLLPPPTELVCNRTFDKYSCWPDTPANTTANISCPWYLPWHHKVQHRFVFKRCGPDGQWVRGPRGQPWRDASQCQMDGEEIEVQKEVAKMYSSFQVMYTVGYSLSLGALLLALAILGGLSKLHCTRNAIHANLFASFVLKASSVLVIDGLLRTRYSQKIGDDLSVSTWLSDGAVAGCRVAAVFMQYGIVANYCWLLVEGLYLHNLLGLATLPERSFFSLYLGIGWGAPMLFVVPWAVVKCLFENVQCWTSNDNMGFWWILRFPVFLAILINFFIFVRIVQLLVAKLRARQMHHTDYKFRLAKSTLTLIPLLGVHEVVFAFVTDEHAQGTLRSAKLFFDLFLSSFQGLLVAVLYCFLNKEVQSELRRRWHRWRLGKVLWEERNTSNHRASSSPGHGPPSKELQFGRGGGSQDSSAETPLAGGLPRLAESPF

Turning to `CC[C@H](C)[C@H](NC(=O)[C@H](Cc1ccccc1)NC(=O)[C@H](CCC(=O)O)NC(=O)[C@H](CCCNC(=N)N)NC(=O)[C@H](C)NC(=O)[C@H](C)NC(=O)[C@H](CCC(N)=O)NC(=O)CNC(=O)[C@H](CCC(=O)O)NC(=O)[C@H](CC(C)C)NC(=O)[C@H](Cc1ccc(O)cc1)NC(=O)[C@H](CCCNC(=N)N)NC(=O)[C@H](CO)NC(=O)[C@@H](NC(=O)[C@H](CC(=O)O)NC(=O)[C@H](CO)NC(=O)[C@@H](NC(=O)[C@H](Cc1ccccc1)NC(=O)[C@@H](NC(=O)CNC(=O)[C@H](Cc1c[nH]cn1)NC(=O)C(C)(C)NC(=O)CCc1c[nH]cn1)[C@@H](C)O)[C@@H](C)O)C(C)C)C(=O)N[C@@H](C)C(=O)N[C@@H](Cc1c[nH]c2ccccc12)C(=O)N[C@@H](CC(C)C)C(=O)N[C@@H](CC(C)C)C(=O)N[C@@H](CCCCNC(=O)CNC(=O)[C@H](CO)NC(=O)[C@H](CCC(=O)O)NC(=O)CNC(=O)[C@H](CO)NC(=O)CC[C@H](NC(=O)CC[C@H](NC(=O)CCCCCCCCCCCCCCCCC(=O)O)C(=O)O)C(=O)O)C(=O)N[C@H](C(N)=O)[C@@H](C)O` [Example 8, N^ε34-[2-[[(2S)-2-[[(2S)-4-carboxy-2-[[2-[[(2S)-2-[[(4S)-4-carboxy-4-[[(4S)-4-carboxy-4-(17-carboxyheptadecanoylamino)butanoyl]amino]butanoyl]amino]-3-hydroxypropanoyl]amino]acetyl]amino]butanoyl]amino]-3-hydroxypropanoyl]amino]acetyl]-[Imp7,Aib8,His9,Arg18,Arg26,Leu33,Thr35]-GLP-1-(7-35)-peptide amide] (I: Desaminohistidyl-[Aib]HGTFTSDVSRYLEGQAAREFIAWLLKT-NH2 / II: {C18 diacid-γGlu-γGlu}-SGESG; amide I:27-II:C), the half-maximal effective concentration (EC50) worked out at 0.143 nM.
